In patent US8329895B2, “Cefdinir acid double salt and method for producing the same” (Zhejiang Adamerck Biopharmlabs Inc., priority 2008, dated 2012):
Where a name gives a salt, the structure may show the parent alone. Read-outs that look alike come from different tables or passages of the source.

Columns and labels:
[1] = Bioavailability comparison in beagles, capsules by intragastric administration, cefdinir concentration in venous blood; type: in vivo; settings: for Time to peak / AUC(0-t) / Cmax / AUC(0-10): capsules containing 200 mg of cefdinir, intragastric administration; for Bioavailability percentage increase: compared with conventional cefdinir capsule; for AUC(0-t) / AUC(0-10): 0-10 h; for Cmax: cefdinir in venous blood
Procedure: Beagles, half male and half female, with body weight of 10 kg, were starved for 12 hrs and only water fed. The compounds of the invention were formulated into capsules containing 200 mg of cefdinir and fed to beagles by intragastric administration. The control group was administered with conventional cefdinir capsules. 3 hrs later, the beagles were fed with common food. At 0 h, 0.5 h, 1 h, 1.5 h, 2 h, 2.5 h, 3 h, 4 h, 6 h, 8 h, and 10 h after intragastric administration, 0.5 mL of venous blood was collected respectively to measure the concentration of cefdinir.

[2] = Solubility of cefdinir and the double salts in water; type: physicochemical
Source text: The solubility of the compounds of the invention has been increased by 100 times. Table 1 lists the solubility of the compounds of the invention.)

[3] = heating; salt disclosed in CN 1,415,615A; cited from earlier work
[4] = cited from earlier work
[5] = background statement; cited from earlier work
[6] = both sexes, beagle, dog, venous blood, po, 200 mg
[7] = both sexes, beagle, dog, venous blood, po, 200 mg, read-out: Cmax

With `C=CC1=C(C(=O)O)N2C(=O)C(NC(=O)/C(=N\O)c3csc(N)n3)C2SC1` (single isomer, unassigned; (-)) [Cefdinir sodium(0.5) hydrogen(1.5) sulfate] the Time to peak [1] was 3 h, the Bioavailability percentage increase [1] was 135% and the Solubility [2] was “Soluble”.
Work on `C=CC1=C(C(=O)O)N2C(=O)C(NC(=O)/C(=N\O)c3csc(N)n3)C2SC1` (single isomer, unassigned; (-)) yielded an AUC(0-t) [1, 6] of 240 µg·h/mL and a Cmax [1, 7] of 50200 ng/mL.
In the case of `C=CC1=C(C(=O)[O-])N2C(=O)C(NC(=O)C(=NO)c3csc(N)n3)C2SC1.[Na+]` (stereo not drawn) [sodium cefdinir], the “Temperature at which the salt turns black” value [3] is listed as 190 °C and the “Temperature at which the salt turns yellow” value [3] is listed as “about 160 °C”.
With `C=CC1=C(C(=O)O)N2C(=O)[C@@H](NC(=O)/C(=N\O)c3csc(N)n3)[C@H]2SC1` [Cefdinir potassium dihydrogen phosphate, (−)-(6R,7R)-7-((Z)-2-(2-aminothiazole-4-yl)-2-hydroxyimino-acetylamino) 8-oxo-3-vinyl-5-thia-1-azabicyclo(4.2.0)oct-2-ene-2-carboxylic acid potassium dihydrogen phosphate] the “AUC(0-10)” value ([1]; phosphate) was 152.15 µg·h/mL, the Cmax ([1]; phosphate) was 30370 ng/mL and the Time to peak ([1]; phosphate) was 3 h. For the same compound, the Bioavailability percentage increase ([1]; phosphate) was 49%.
In the case of `C=CC1=C(C(=O)O)N2C(=O)C(NC(=O)/C(=N\O)c3csc(N)n3)C2SC1` (single isomer, unassigned; (-)) [Cefdinir ammonium(0.5) hydrogen(1.5) sulfate], the Time to peak [1] is reported as 2.5 h, the “AUC(0-10)” value [1] is reported as 160.31 µg·h/mL and the Cmax [1] is reported as 34120 ng/mL. For the same compound, the Bioavailability percentage increase [1] was 57% and the Solubility [2] was “Soluble”.
For `C=CC1=C(C(=O)O)N2C(=O)C(NC(=O)/C(=N\O)c3csc(N)n3)C2SC1` (single isomer, unassigned; (-)) [Cefdinir potassium(0.5) hydrogen(1.5) sulfate], the Time to peak [1] was 3 h, the “AUC(0-10)” value [1] was 213.40 µg·h/mL and the Cmax [1] was 47650 ng/mL. The Bioavailability percentage increase [1] was 109% and the Solubility [2] was “Soluble”.
For `C=CC1=C(C(=O)O)N2C(=O)[C@@H](NC(=O)/C(=N\O)c3csc(N)n3)[C@H]2SC1` [Cefdinir sodium hydrogen sulfate, (−)-(6R,7R)-7-((Z)-2-(2-aminothiazole-4-yl)-2-hydroxyimino-acetylamino)-8-oxo-3-vinyl-5-thia-1-azabicyclo(4.2.0)oct-2-ene-2-carboxylic acid sodium hydrogen sulfate], the “AUC(0-10)” value ([1]; sodium hydrogen sulfate) was 255.27 µg·h/mL, the Cmax ([1]; sodium hydrogen sulfate) was 65430 ng/mL and the Time to peak ([1]; sodium hydrogen sulfate) was 3 h. For the same compound, the Bioavailability percentage increase ([1]; sodium hydrogen sulfate) was 149% and the Solubility ([2]; sodium hydrogen sulfate) was “Slightly soluble”.
For `C=CC1=C(C(=O)O)N2C(=O)[C@@H](NC(=O)/C(=N\O)c3csc(N)n3)[C@H]2SC1` [Cefdinir potassium hydrogen sulfate, (−)-(6R,7R)-7-((Z)-2-(2-aminothiazole-4-yl)-2-hydroxyimino-acetylamino)-8-oxo-3-vinyl-5-thia-1-azabicyclo(4.2.0)oct-2-ene-2-carboxylic acid potassium hydrogen sulfate], the AUC(0-t) [1, 6] was 261 µg·h/mL, the Cmax [1, 7] was 54100 ng/mL and the Time to peak ([1]; potassium hydrogen sulfate) was 2.5 h. The Bioavailability percentage increase ([1]; potassium hydrogen sulfate) was 156% and the Solubility ([2]; potassium hydrogen sulfate) was “Slightly soluble”.
In the case of `C=CC1=C(C(=O)O)N2C(=O)[C@@H](NC(=O)/C(=N\O)c3csc(N)n3)[C@H]2SC1` [Cefdinir ammonium hydrogen sulfate, (−)-(6R,7R)-7-((Z)-2-(2-aminothiazole-4-yl)-2-hydroxyimino-acetylamino)-8-oxo-3-vinyl-5-thia-1-azabicyclo(4.2.0)oct-2-ene-2-carboxylic acid ammonium hydrogen sulfate], the “AUC(0-10)” value ([1]; ammonium hydrogen sulfate) is reported as 202.18 µg·h/mL, the Time to peak ([1]; ammonium hydrogen sulfate) is reported as 3 h and the Cmax ([1]; ammonium hydrogen sulfate) is reported as 43630 ng/mL. The Bioavailability percentage increase ([1]; ammonium hydrogen sulfate) was 98% and the Solubility ([2]; ammonium hydrogen sulfate) was “Slightly soluble”.
For `C=CC1=C(C(=O)O)N2C(=O)[C@@H](NC(=O)/C(=N\O)c3csc(N)n3)[C@H]2SC1` [Cefdinir], the bioavailability ([4]; capsule) is given as 16-20%, the bioavailability ([4]; liquid suspension) is given as 25% and the Solubility in water [5] is given as “insoluble”. For the same compound, the Solubility [2] was “hardly soluble”.
For `C=CC1=C(C(=O)O)N2C(=O)[C@@H](NC(=O)/C(=N\O)c3csc(N)n3)[C@H]2SC1` [Cefdinir sodium dihydrogen phosphate, (−)-(6R,7R)-7-((Z)-2-(2-aminothiazole-4-yl)-2-hydroxyimino-acetylamino)-8-oxo-3-vinyl-5-thia-1-azabicyclo(4.2.0)oct-2-ene-2-carboxylic acid sodium dihydrogen phosphate], the “AUC(0-10)” value ([1]; phosphate) was 123.55 µg·h/mL, the Cmax ([1]; phosphate) was 27280 ng/mL and the Time to peak ([1]; phosphate) was 2.5 h. For the same compound, the Bioavailability percentage increase ([1]; phosphate) was 20% and the Solubility ([2]; phosphate) was “Slightly soluble”.
